Test results: article PMC6032384 (International Journal of Molecular Sciences, 2018)
Like-named read-outs stand apart in the source and are kept apart here.

Columns and labels:
HL-60 cells [1] = assay: Annexin V-FITC/PI apoptosis assay by flow cytometry; assay type: cell-based, human; settings: annexin V-FITC/PI, 24 and 48 h
Procedure: Additionally, annexin V, which is a Ca^2+-dependent protein with high affinity for phosphatidylserine, was conjugated to a fluorochrome to detect phosphatidylserine exposure using flow cytometry. Since phosphatidylserine exposure precedes the loss of membrane integrity, annexin V staining was used along with the dye PI to identify early and late apoptotic cells, as well as necrotic cells. Therefore, annexin V-FITC/PI double staining was applied to HL-60 cells that were treated with the [Ru(PPh3)2(Thy)(bipy)]PF6 complex after 24 and 48 h of incubation, and the numbers of viable, early apoptotic, late apoptotic, and necrotic cells were quantified by flow cytometry (Figure 5).
Figure 5 Evaluation of the apoptosis induced by the [Ru(PPh3)2(Thy)(bipy)]PF6 complex (CRT) in HL-60 cells determined by flow cytometry using annexin V-FITC/PI staining after 24 and 48 h of incubation. (A) Representative flow cytometry dot plots. (B) Apoptotic cell quantification (annexin V-FITC positive cells). […] Data are presented as the mean ± S.E.M. of at the least three independent experiments. * p < 0.05 as compared with the negative control by ANOVA, followed by the Student Newman-Keuls test. […] Its quadrant percentages are just as hard to read: 24 h about Q1 0.640%, Q2 5.23%, Q4 85.6%, Q3 8.47%; 48 h about Q1 0.430%, Q2 3.07%, Q4 91.0%, Q3 5.52%.
(§1) Light scattering features were determined by flow cytometry. The internucleosomal DNA fragmentation and cell cycle distribution were determined according to Nicoletti et al.. For apoptosis measurements, a FITC Annexin V Apoptosis Detection Kit I (BD Biosciences, San Jose, CA, USA) was used, and the analysis was performed, according to the manufacturer’s instructions. A protection assay using the pan-caspase inhibitor Z-VAD(OMe)-FMK (Cayman Chemical, Ann Arbor, MI, USA) was also evaluated. The mitochondrial transmembrane potential was determined by the retention of the dye rhodamine 123 [28]. The levels of ROS were measured, as previously described, using 2′,7′-dichlorofluorescin diacetate (DCF-DA, Sigma-Aldrich Co.). At least 1 × 10^4 events were recorded per sample using a BD LSRFortessa cytometer along with BD FACSDiva Software (BD Biosciences) and Flowjo Software 10 (Flowjo LCC, Ashland, OR, USA). The cellular debris was omitted from the analysis.

[2] = test system: PBMC (human peripheral blood mononuclear cell); assay: Alamar blue (AB) cytotoxicity assay, PBMC noncancerous cells; assay type: cell-based; settings: PBMC non-cancer cells, 72 h
HL-60 cells [3] = assay: Cell morphology (May-Grunwald-Giemsa staining) and light scattering by flow cytometry; assay type: cell-based, human; settings: positive controls, DOX 2 µM, OXA 2.5 µM
HL-60 cells [4] = assay type: cell-based, human; settings: for DNA fragmentation (in words): positive controls, DOX 2 µM, 24 and 48 h
Procedure: The internucleosomal DNA fragmentation and cell cycle distribution were assessed in HL-60 cells after 24 and 48 h of incubation with the [Ru(PPh3)2(Thy)(bipy)]PF6 complex in a DNA content-based assay using the dye propidium iodide (PI) and flow cytometry (Table 3). All DNA with a subdiploid size (sub-G0/G1) were considered to be fragmented. At concentrations of 1, 2, and 4 μM, the complex led to, respectively, 19.4%, 30.1%, and 36.2% DNA fragmentation after 24 h of incubation and to 12.5%, 26.7%, and 58.2% DNA fragmentation after 48 h of incubation.
as §1

[5] = test system: MRC-5 (human lung fibroblast); assay: Alamar blue (AB) cytotoxicity assay, MRC-5 noncancerous cells; assay type: cell-based; settings: MRC5 non-cancer cells, 72 h
[6] = test system: BAD gene knockout immortalized mouse embryonic fibroblasts (BAD KO SV40 MEF); assay: Alamar blue (AB) cytotoxicity assay, BAD KO SV40 MEF; assay type: cell-based; settings: Mus musculus, Fibroblast, 72 h
[7] = test system: wild-type immortalized mouse embryonic fibroblasts (WT SV40 MEF); assay: Alamar blue (AB) cytotoxicity assay, WT SV40 MEF; assay type: cell-based; settings: Mus musculus, Fibroblast, 72 h
HL-60 cells [8] = settings: 2 μM, TBE

Structure (SMILES): O=C1[O][Pt]2([NH][C@@H]3CCCC[C@H]3[NH]2)[O]C1=O [OXA, Oxaliplatin, reference compound]
- Percentage of apoptotic cells (early apoptotic cells + late apoptotic cells) (HL-60 cells [1]): caused an increase
- IC50 [2]: 9.4 µM
- Type of cell death (HL-60 cells [3]): caused cell death by apoptosis
- DNA content G0/G1 (HL-60 cells [4]; 2.5 µM, 24 h): 31.4 ± 3.0 %
- DNA content G2/M (HL-60 cells [4]; 2.5 µM, 24 h): 26.0 ± 3.6 %
- DNA content S (HL-60 cells [4]; 2.5 µM, 24 h): 11.6 ± 2.3%
- DNA content Sub-G0/G1 (DNA fragmentation) (HL-60 cells [4]; 2.5 µM, 24 h): 21.9 ± 3.3 %
- DNA content G0/G1 (HL-60 cells [4]; 2.5 µM, 48 h): 42.9 ± 2.8 %
- DNA content G2/M (HL-60 cells [4]; 2.5 µM, 48 h): 19.1 ± 3.3%
- DNA content S (HL-60 cells [4]; 2.5 µM, 48 h): 14.2 ± 1.2%
- DNA content Sub-G0/G1 (DNA fragmentation) (HL-60 cells [4]; 2.5 µM, 48 h): 18.4 ± 4.4 %
- Cell cycle arrest (HL-60 cells [4]; OXA 2.5 µM): cell cycle arrest at the G2/M phase
- DNA fragmentation (in words) (HL-60 cells [4]; OXA 2.5 µM): induced DNA fragmentation
- IC50 [5]: 1.3 µM

Structure (SMILES): O=c1[nH]cc(F)c(=O)[nH]1 [5-fluorouracil]
- IC50 [6]: 11.2 µM
- IC50 [7]: 5.7 µM

Structure (SMILES): COc1cccc2c1C(=O)c1c(O)c3c(c(O)c1C2=O)C[C@@](O)(C(=O)CO)C[C@@H]3O[C@H]1C[C@H](N)[C@H](O)[C@H](C)O1 [DOX, Doxorubicin, reference compound]
- IC50 [6]: 1.3 µM
- Percentage of apoptotic cells (early apoptotic cells + late apoptotic cells) (HL-60 cells [1]): caused an increase
- IC50 [7]: 0.8 µM
- IC50 ([2]; Homo sapiens): 5.1 µM
- Type of cell death (HL-60 cells [3]): caused cell death by apoptosis
- Reduction of the number of viable cells (HL-60 cells [8]; 24 h): 58.0%
- Reduction of the number of viable cells (HL-60 cells [8]; 48 h): 88.1%
- DNA content G0/G1 (HL-60 cells [4]; 2 µM, 24 h): 19.9 ± 2.5 %
- DNA content G2/M (HL-60 cells [4]; 2 µM, 24 h): 8.9 ± 1.5 %
- DNA content S (HL-60 cells [4]; 2 µM, 24 h): 6.6 ± 1.6 %
- DNA content Sub-G0/G1 (DNA fragmentation) (HL-60 cells [4]; 2 µM, 24 h): 58.6 ± 2.5 %
- DNA content G0/G1 (HL-60 cells [4]; 2 µM, 48 h): 21.9 ± 3.0 %
- DNA content G2/M (HL-60 cells [4]; 2 µM, 48 h): 3.8 ± 0.9 %
- DNA content S (HL-60 cells [4]; 2 µM, 48 h): 6.5 ± 0.6 %
- DNA content Sub-G0/G1 (DNA fragmentation) (HL-60 cells [4]; 2 µM, 48 h): 65.4 ± 2.8 %
- DNA fragmentation (in words) (HL-60 cells [4]; OXA 2.5 µM): induced DNA fragmentation
- IC50 ([5]; Homo sapiens): 1.5 µM
